Legend:
[1] = target: T1, HCV NS5BΔ21/Gal4-DBD fusion protein (Hepatitis C virus genotype 1b, UniProt Q9WMX2); assay: 3D-SCREEN assay (NS5B reporter gene assay in Huh-7 cells); assay type: cell-based, HCV genotype 1b
T1 construct: The protein was expressed with a 21 amino acid C-terminal deletion to remove transmembrane domain; expressed in transfected cells; host or cells: Huh-7 (transient transfection)
Experimental: (§1) Human Hepatoma Huh-7 cell line was maintained in DMEM/HAMF-12 supplemented with 10% SVF, 4 mM glutamine, […] Na pyruvate, 1% penistreptomycine. HCV replicon containing Huh-7 cell lines Huh-9.13 and Luc Neo ET (Reblikon) were maintained in DMEM supplemented with 10% SVF, 2 mM glutamine, and 1×NEAA, 100 U/ml penicillin, and 100 μg/ml streptomycine. Replicon cells were maintained in medium supplemented with 1 mg/ml G418 for replicon Huh-9.13 and 0.5 mg/ml for Luc Neo et replicon unless indicated otherwise. Huh-7 and HCV replicon cell lines were maintained at 37° C. and 5% CO2 in a humidified atmosphere. Cells were dissociated at sub confluence with trypsin EDTA 1×.
cDNA encoding HCV NS5B genotype 1b, was cloned in frame with Gal4-DNA Binding Domain. The protein was expressed with a 21 amino acid C-terminal deletion to remove transmembrane domain. Expression of NS5BΔ21/Gal4 DBD fusion protein was under control of SV40 early promoter. 3D-Sensor peptide was cloned in frame with VP16 activation domain. Expression of 3D-Sensor/VP16 AD fusion protein was under control of CMV promoter. Expression of the firefly luciferase reporter gene was inducible by the [Target protein/conformation sensitive peptide/VP16AD] complex.
It is a single-target, cell based assay. Briefly, expression of a reporter gene depends on the interaction of a short peptide, thereafter named 3D-Sensor, and native conformation of the target protein. Whenever the conformation of the target protein is modified, interaction between 3D-sensor and target protein is disrupted and reporter gene is not expressed anymore. Conformation modifiers are identified by loss of expression of reporter gene. NS5B 3D-Screen platform was generated in Huh-7 cell lines by transient transfection of three expression vectors encoding respectively • (i) HCV NS5BΔ21/Gal4-DBD fusion protein • (ii) the 3D-sensor peptide 14/VP16 fusion protein • (iii) the firefly luciferase reporter gene
Huh-7 cells were dissociated the day before transfection and seeded in T175 flasks at a density of 10^7 cells in 30 ml culture medium. Equimolar ratios of vectors were transfected in cell according to optimized jetPEI transfection protocol (PolyPlus Transfection, Illkirch, France) and 10 μg total DNA/10^6 cells. Transfection was performed for 2 hours at 37° C. and 5% CO2 in a humidified atmosphere. After two hours cells were dissociated and seeded in 96 wells plates at a density of 25,000 cells per well and 90 μl culture medium. 10 μl of compounds to be tested were added 2 hours after seeding. Final concentration of DMSO was 1%. Cells were incubated in the presence of compounds for 24 hours after which expression of firefly luciferase reporter gene was quantified. Briefly, culture medium was removed and cells were lysed by addition of 100 μl of lysis buffer containing 125 mM Tris Phosphate ph 7.8, 10 mM EDTA, 5 mM DTT, 50% glycerol and 5% Triton. Plates were vortexed 10 min at 1300 rpm. Cell lysat was transferred in OpaqueWhite Assay 96 well Flat Bottom plates. 100 μl of luciferin solution 1× were added to each well. Luciferin solution contained 40 mM Tris Phosphate ph 7.8, 0.2 mM EDTA, 67 mM DTT, 2.14 mM MgCl2, 5.4 mM MgSO4, 4.7×10^−4 M luciferin, 5.3×10^−4 M ATP and 2.7×10^−4 M Acetyl co enzyme A. Luminescence was immediately measured with Berthold Microlumat Plus LB 96V luminometer with an integration of 0.5 sec. Inhibition was calculated using the formula: % inhibition=(1−(read/average max))*100. Average max=signal in absence of compound

[2] = tested on: HCV replicon Luc Neo ET in Huh-7 cells; assay: Replicon assay (Luc Neo ET replicon); assay type: cell-based; settings: Hepatitis C virus, 72 hours with compound, firefly luciferase reporter, read-out: EC50—Replicon LucneoET
Experimental: as §1
Replicon Luc Neo ET is a bicistronic expression constructs (Lohmann et al, 1999, Science 285, 110-113). In brief, the structural genes of the HCV genome were replaced by heterologous sequences; the gene encoding the neomycin phosphotransferase (NPT) and the internal ribosome entry site (IRES) of the encephalomyocarditis virus (EMCV). The bicistronic construct is therefore composed of the following elements: HCV-IRES nucleotides 1-389, the NPT gene, the EMCV-IRES directing translation of downstream HCV sequences from NS2 or NS3 up to the authentic 3′ end of the genome. HCV Polyprotein harbours the cell culture adaptive mutations E1202G, T1280I, K1846T. G418-resistance is only possible with cells containing high amounts of replicon.
Cells were dissociated the day before addition of compounds and seeded in 96 well-plates at a final concentration of 77 777.77 cells·ml^−1·well^−2 in 90 μl final volume of culture medium per well and were maintained at 37° C. and 5% CO2 in a humidified atmosphere for 24 hours. 10 μl of compounds to be tested were added 24 hours after seeding. Final concentration of DMSO was 1%. Cells were incubated in the presence of compounds for 72 hours after which expression of firefly luciferase reporter gene was quantified. Briefly, culture medium was removed and cells were lysed by addition of 100 μl of lysis buffer containing 125 mM Tris Phosphate ph 7.8, 10 mM EDTA, 5 mM DTT, 50% glycerol and 5% Triton. Plates were vortexed 10 min at 1300 rpm. Cell lysat was transferred in OpaqueWhite Assay 96 well Flat Bottom plates. 100 μl of luciferin solution 1× were added to each well. Luciferin solution contained 40 mM Tris Phosphate ph 7.8, 0.2 mM EDTA, 67 mM DTT, 2.14 mM MgCl2, 5.4 mM MgSO4, 4.7×10^−4 M luciferin, 5.3×10^−4 M ATP and 2.7×10^−4 M Acetyl co enzyme A. Luminescence was immediately measured with Berthold Microlumat Plus LB 96V luminometer with an integration of 0.5 sec Inhibition was calculated using the formula:
% inhibition=1−[(RLUsample−RLUbackground)/(RLUsignal−RLUbackground)]

[3] = target: T2, purified HCV NS5B with a deletion of the 21 C-terminal amino acids (Hepatitis C virus genotype 1b, UniProt Q9WMX2); assay: HCV NS5B RdRp enzyme assay; assay type: biochemical; settings: read-out: inhibition (RdRp enzyme assay)
T2 construct: purified HCV NS5B with a deletion of the 21 C-terminal amino acids
Experimental: The assay was performed in a total volume of 20 μl containing 20 mM Tris pH 7.5, 1 mM DTT, 17 U RNasin, 50 mM NaCl, 10% DMSO, 5 mM MgCl2, 0.5 mM each of the 3 NTPs (ATP, CTP, GTP), 86 nM RNA template (341 nt from the 3′ end of HCV minus strand RNA), 50 nM of purified HCV NS5B with a deletion of the 21 C-terminal amino acids and 2 μCi [^3H]UTP (46 Ci·mmol^−1). The reaction mixture was incubated for 2 h at 25-30° C. and the radio labeled products were precipitated by the addition of 10% TCA. The radioactivity incorporated was quantified by counting in a Wallac scintillation counter. Increasing concentrations of tested compounds were added to the complete RdRp reaction mixture. After a two hour incubation period at 25-30° C., the amount of labeled product was determined as above. Two types of control reactions were done: a negative control corresponding to the complete mixture without enzyme and a positive control with enzyme but without compounds. In each experiment, test and control samples are in duplicate.
The level of activity with each compound concentration was expressed with the formulae: […]
The IC50 value was calculated as the compound concentration reducing polymerase activity by 50%.

Compound	EC50 [1] [nM]	EC50 [2] [nM]	inhibition at 10 µM [3] [%]	melting point [°C]
Cc1ccc(C(=O)C2=C(O)C(=O)N(c3ncc(S(=O)(=O)c4ccc([N+](=O)[O-])cc4)s3)C2c2ccc(C(C)(C)C)cc2)cc1 (stereo not drawn) [Example 28]	2000	4000	85	–
Cc1nnc(N2C(=O)C(O)=C(C(=O)c3ccc(C(C)C)cc3)C2c2ccc(OC(F)(F)F)cc2)s1 (stereo not drawn) [Example 127, 3-hydroxy-4-(4-isopropyl-benzoyl)-1-(5-methyl-[1,3,4]thiadiazol-2-yl)-5-(4-trifluoromethoxy-phenyl)-1,5-dihydro-pyrrol-2-one]	< 1000	< 1000	–	260
Cc1nnc(N2C(=O)C(O)=C(C(=O)c3ccc(C(C)C)cc3)C2c2ccc(C(F)(F)F)cc2)s1 (stereo not drawn) [Example 128, 3-hydroxy-4-(4-isopropyl-benzoyl)-1-(5-methyl-[1,3,4]thiadiazol-2-yl)-5-(4-trifluoromethyl-phenyl)-1,5-dihydro-pyrrol-2-one]	< 1000	< 1000	–	257
Cc1cnc(N2C(=O)C(O)=C(C(=O)c3ccc(C(C)C)cc3)C2c2ccc(OC(F)(F)F)cc2)s1 (stereo not drawn) [Example 130, 3-hydroxy-4-(4-isopropyl-benzoyl)-1-(5-methyl-thiazol-2-yl)-5-(4-trifluoromethoxy-phenyl)-1,5-dihydro-pyrrol-2-one]	< 10000	< 10000	–	243 to 244

Source: patent publication US20120189579A1 (priority 2009, published 2012)
